Data from ChEMBL document CHEMBL5154775, “Oxetane Promise Delivered: Discovery of Long-Acting IDO1 Inhibitors Suitable for Q3W Oral or Parenteral Dosing” (J Med Chem, 2022).
Values after ≈ are worked out from the molar mass of the structure shown.

Experiments:
[1] = target: T1, Indoleamine 2,3-dioxygenase 1 (Homo sapiens, UniProt P14902); assay: Inhibition of IDO1 in IFN gamma-stimulated human HeLa cells measured after 48 hrs by fluorescence based microplate reader assay; assay type: cell-based
Target sequence in this assay (P14902 whole entry): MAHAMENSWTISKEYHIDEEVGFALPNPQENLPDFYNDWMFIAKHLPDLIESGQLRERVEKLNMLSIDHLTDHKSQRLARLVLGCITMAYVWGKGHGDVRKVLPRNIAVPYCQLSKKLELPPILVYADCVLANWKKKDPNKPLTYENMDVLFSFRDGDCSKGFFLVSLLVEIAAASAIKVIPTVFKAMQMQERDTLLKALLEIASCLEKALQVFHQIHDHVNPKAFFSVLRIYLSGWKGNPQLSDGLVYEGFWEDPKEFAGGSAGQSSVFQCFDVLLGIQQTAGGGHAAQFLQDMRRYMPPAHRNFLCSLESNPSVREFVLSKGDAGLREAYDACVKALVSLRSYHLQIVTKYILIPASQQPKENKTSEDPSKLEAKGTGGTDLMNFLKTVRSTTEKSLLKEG

[2] = Unbound intrinsic clearance in human hepatocytes; assay type: ADME, cell-based, Hepatocyte
[3] = Solubility of compound at pH 7; assay type: physicochemical; conditions: buffer
[4] = target: Voltage-gated inwardly rectifying potassium channel KCNH2 (Homo sapiens, UniProt Q12809); assay: Inhibition of MK-499 binding to hERG; assay type: toxicity
Sequence of Voltage-gated inwardly rectifying potassium channel KCNH2 (Q12809 whole entry): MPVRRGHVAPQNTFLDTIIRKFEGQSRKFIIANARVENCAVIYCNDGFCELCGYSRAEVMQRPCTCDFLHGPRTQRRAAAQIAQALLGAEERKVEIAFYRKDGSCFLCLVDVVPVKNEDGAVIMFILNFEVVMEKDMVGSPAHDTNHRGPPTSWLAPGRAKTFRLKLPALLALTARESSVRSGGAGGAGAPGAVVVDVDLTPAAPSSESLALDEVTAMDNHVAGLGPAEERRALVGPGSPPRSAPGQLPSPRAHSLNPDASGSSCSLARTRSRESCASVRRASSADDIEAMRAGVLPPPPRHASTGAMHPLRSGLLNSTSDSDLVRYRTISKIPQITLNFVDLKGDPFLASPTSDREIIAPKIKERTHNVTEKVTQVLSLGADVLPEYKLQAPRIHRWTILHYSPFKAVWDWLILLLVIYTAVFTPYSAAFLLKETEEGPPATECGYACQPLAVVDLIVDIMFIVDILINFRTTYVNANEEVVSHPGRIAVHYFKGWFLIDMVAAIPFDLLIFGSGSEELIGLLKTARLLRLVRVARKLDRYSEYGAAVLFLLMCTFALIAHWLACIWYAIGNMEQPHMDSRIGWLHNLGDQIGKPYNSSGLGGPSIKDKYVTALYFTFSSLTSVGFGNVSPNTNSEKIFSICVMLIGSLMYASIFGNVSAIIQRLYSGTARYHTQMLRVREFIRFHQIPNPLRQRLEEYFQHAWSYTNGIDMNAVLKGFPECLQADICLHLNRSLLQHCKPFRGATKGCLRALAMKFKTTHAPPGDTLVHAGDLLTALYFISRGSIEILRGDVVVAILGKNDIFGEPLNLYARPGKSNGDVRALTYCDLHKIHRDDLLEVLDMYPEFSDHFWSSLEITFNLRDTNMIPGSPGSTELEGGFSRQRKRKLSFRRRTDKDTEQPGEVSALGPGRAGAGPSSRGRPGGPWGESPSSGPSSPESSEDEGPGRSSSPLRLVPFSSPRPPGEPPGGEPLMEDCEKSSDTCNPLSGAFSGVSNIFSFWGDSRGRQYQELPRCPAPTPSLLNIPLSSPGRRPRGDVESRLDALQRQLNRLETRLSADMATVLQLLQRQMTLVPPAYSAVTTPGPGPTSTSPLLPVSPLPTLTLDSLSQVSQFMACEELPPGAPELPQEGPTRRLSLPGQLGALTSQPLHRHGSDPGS

[5] = Unbound intrinsic clearance in rat hepatocytes; assay type: ADME, cell-based, Hepatocyte
[6] = Solubility of compound at pH 2; assay type: physicochemical; conditions: buffer
[7] = MRT in rat; assay type: ADME; conditions: in vivo
[8] = Half life in rat; assay type: ADME; conditions: in vivo
[9] = Volume of distribution at steady state in rat; assay type: ADME; conditions: in vivo
[10] = target: T1, Indoleamine 2,3-dioxygenase 1; assay: Inhibition of IDO1 in IFNgamma/LPS stimulated human whole blood assessed as unbound concentration using kynurenine/tryptophan as substrate preincubated with compound for 15 mins followed by incubation with IFNgamma/LPS for 18 hrs by LC/MS/MS analysis; assay type: tissue-based
Target sequence in this assay (P14902 whole entry): as the sequence (P14902 whole entry) above

Cytochrome P450 2C9 = Cytochrome P450 2C9 (Homo sapiens, UniProt P11712); assay: Inhibition of CYP2C9 (unknown origin); assay type: ADME
Sequence of Cytochrome P450 2C9 (P11712 whole entry): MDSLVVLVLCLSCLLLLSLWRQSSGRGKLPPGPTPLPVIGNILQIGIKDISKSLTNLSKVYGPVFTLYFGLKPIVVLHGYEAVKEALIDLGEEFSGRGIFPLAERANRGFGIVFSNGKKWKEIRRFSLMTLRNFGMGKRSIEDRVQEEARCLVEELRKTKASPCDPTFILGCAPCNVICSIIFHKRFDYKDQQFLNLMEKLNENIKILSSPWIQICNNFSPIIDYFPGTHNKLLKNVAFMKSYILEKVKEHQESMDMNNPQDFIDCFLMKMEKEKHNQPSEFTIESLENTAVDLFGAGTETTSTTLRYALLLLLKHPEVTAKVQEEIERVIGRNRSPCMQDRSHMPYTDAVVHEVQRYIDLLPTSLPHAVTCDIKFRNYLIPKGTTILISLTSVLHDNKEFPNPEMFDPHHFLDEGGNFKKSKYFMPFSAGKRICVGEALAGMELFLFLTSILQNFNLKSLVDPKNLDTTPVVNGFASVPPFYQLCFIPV

[11] = target: T1, Indoleamine 2,3-dioxygenase 1; assay: Displacement of [3H] labeled-N-(4-Fluorophenyl)-3-(4-(4-(2-hydroxypropan-2-yl)-6-(trifluoromethyl)pyridin-3-yl)phenyl)oxetane-3-carboxamide from human IDO1 assessed as dissociation constant by radioligand binding assay
Target sequence in this assay (P14902 whole entry): as the sequence (P14902 whole entry) above

[12] = target: T1, Indoleamine 2,3-dioxygenase 1; assay: Displacement of [3H] labeled-N-(4-Fluorophenyl)-3-(4-(4-(2-hydroxypropan-2-yl)-6-(trifluoromethyl)pyridin-3-yl)phenyl)oxetane-3-carboxamide from human IDO1 assessed as inhibition constant by radioligand binding assay
Target sequence in this assay (P14902 whole entry): as above

[13] = Inhibition of potassium channel (unknown origin) current; design: species or system Homo sapiens
[14] = Oral bioavailability in dog using spray-dried dispersion at 0.5 mg/kg by LC-MS/MS analysis; assay type: ADME, organism-based, Canis lupus familiaris; conditions: in vivo
[15] = target: Indoleamine 2,3-dioxygenase 1 (Mus musculus) (UniProt P28776); assay: In vivo inhibition of human IDO1 knock-in mouse CT26 cells translated in single oral gavage dosed CD1 mouse tumor model assessed as reduction in kynurenine level in tumor measured upto 24 hrs; assay type: functional, organism-based; conditions: dose 0.3-30 mg/kg, DDE = dose-dependent effect
Sequence of Indoleamine 2,3-dioxygenase 1 (Mus musculus) (P28776 whole entry, looked up): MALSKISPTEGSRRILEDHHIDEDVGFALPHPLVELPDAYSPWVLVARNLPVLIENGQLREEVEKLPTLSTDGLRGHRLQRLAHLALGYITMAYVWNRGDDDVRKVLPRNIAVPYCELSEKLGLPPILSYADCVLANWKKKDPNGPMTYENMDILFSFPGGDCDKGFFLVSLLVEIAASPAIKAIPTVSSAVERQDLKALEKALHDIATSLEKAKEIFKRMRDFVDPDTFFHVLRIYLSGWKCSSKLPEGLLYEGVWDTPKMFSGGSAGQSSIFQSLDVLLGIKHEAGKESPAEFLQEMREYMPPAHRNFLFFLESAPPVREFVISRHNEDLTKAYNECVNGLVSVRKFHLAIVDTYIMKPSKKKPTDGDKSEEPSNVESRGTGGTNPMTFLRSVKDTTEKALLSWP

[16] = Inhibition of Calcium channel (unknown origin) current; design: species or system Homo sapiens
[17] = target: T1, Indoleamine 2,3-dioxygenase 1; assay: Displacement of [3H] labeled-N-(4-Fluorophenyl)-3-(4-(4-(2-hydroxypropan-2-yl)-6-(trifluoromethyl)pyridin-3-yl)phenyl)oxetane-3-carboxamide from human IDO1 assessed as dissociation half life by radioligand binding assay
Target sequence in this assay (P14902 whole entry, looked up): as the sequence (P14902 whole entry) above

[18] = Half life in dog at 0.5 mg/kg, po or 0.25 mg/kg, iv by LC-MS/MS analysis; assay type: ADME, organism-based, Canis lupus familiaris; conditions: in vivo
[19] = Half life in Wistar Han rat at 1 mg/kg, po or 0.5 mg/kg, iv by LC-MS/MS analysis; assay type: ADME, organism-based; conditions: in vivo
[20] = Oral bioavailability in dog using crystalline at 0.5 mg/kg by LC-MS/MS analysis; assay type: ADME, organism-based, Canis lupus familiaris; conditions: in vivo
[21] = target: Indoleamine 2,3-dioxygenase 1 (Mus musculus) (UniProt P28776); assay: In vivo inhibition of human IDO1 knock-in mouse CT26 cells translated in single oral gavage dosed CD1 mouse tumor model assessed as reduction in kynurenine level in plasma measured upto 24 hrs; assay type: functional, organism-based; conditions: dose 0.3-30 mg/kg, DDE = dose-dependent effect
[22] = target: T1, Indoleamine 2,3-dioxygenase 1; assay: Displacement of [3H] labeled-N-(4-Fluorophenyl)-3-(4-(4-(2-hydroxypropan-2-yl)-6-(trifluoromethyl)pyridin-3-yl)phenyl)oxetane-3-carboxamide from human IDO1 assessed as dissociation rate constant by radioligand binding assay
Target sequence in this assay (P14902 whole entry, looked up): as the sequence (P14902 whole entry) above

[23] = Oral bioavailability in Wistar Han rat using spray-dried dispersion at 1 mg/kg by LC-MS/MS analysis; assay type: ADME, organism-based; conditions: in vivo
[24] = Inhibition of Sodium channel (unknown origin) current; design: species or system Homo sapiens
[25] = Oral bioavailability in Wistar Han rat using crystalline form of sample at 1 mg/kg by LC-MS/MS analysis; assay type: ADME, organism-based; conditions: in vivo

IC50 [1]	CL free [2]	solubility [3]	CL free [5]	solubility [6]	Compound	also measured
> 10000 nM					CCCNC(=O)C1(c2ccc(-c3ccccn3)cc2)CCC1	
	4 mL/min/kg	141 µM (≈ 53.5 µg/mL)	971 mL/min/kg	40 µM (≈ 15.2 µg/mL)	O=C(Nc1ccc(F)cc1)C1(c2ccc(-c3nc(C4CC4)no3)cc2)COC1	IC50 [4]: 13800 nM
	420 mL/min/kg		250 mL/min/kg		O=C(Nc1ccc(C2(C(=O)Nc3ccc(F)cc3)COC2)cc1)c1cccc(Cl)c1	
					CCCNC(=O)C1(c2ccc(NC(=O)c3cccc(Cl)c3)cc2)CCC1	MRT [7]: 0.7 h; half-life [8]: 0.89 h; Vdss [9]: 180 L/kg
1170 nM					CCCNC(=O)C1(c2ccc(-c3ccc(C)nc3)cc2)CCC1	
> 10000 nM					CCCNC(=O)C1(c2ccc(-c3ccncc3)cc2)CCC1	
	330 mL/min/kg	< 3 µM	590 mL/min/kg	< 3 µM	Cc1cc(C(F)(F)F)ncc1-c1ccc(C2(C(=O)Nc3ccc(F)cc3)COC2)cc1	
	689 mL/min/kg	< 3 µM	4361 mL/min/kg	< 3 µM	O=C(Nc1ccc(F)cc1)C1(c2ccc(-c3ccc(C4CC4)nc3)cc2)COC1	IC50 [10]: 377 nM
8020 nM					CCCNC(=O)C1(c2ccc(-c3cccnc3)cc2)CCC1	
	376 mL/min/kg	< 2 µM	1658 mL/min/kg	< 2 µM	O=C(Nc1ccc(F)cc1)C1(c2ccc(-c3cnc(C(F)(F)F)cc3CO)cc2)CCC1	IC50 (Cytochrome P450 2C9): 905 nM; IC50 [4]: 11900 nM
2 nM	19 mL/min/kg	145 µM (≈ 64.7 µg/mL)	< 10 mL/min/kg	147 µM (≈ 65.6 µg/mL)	O=C(Nc1ccc(F)cc1)C1(c2ccc(-c3cnc(C(F)(F)F)cc3CO)cc2)COC1	Kd [11]: 0.158 nM; Ki [12]: 0.15 nM; IC50 (Cytochrome P450 2C9): 6300 nM; IC50 [4]: 22800 nM; IC50 [10]: 2.5 nM
		143 µM (≈ 58 µg/mL)		140 µM (≈ 56.8 µg/mL)	O=C(Nc1ccc(F)cc1)C1(c2ccc(-n3cnc(C4CC4)cc3=O)cc2)COC1	IC50 [4]: > 60000 nM
	365 mL/min/kg	< 3 µM	6156 mL/min/kg	139 µM (≈ 55.9 µg/mL)	Cc1cc(C2CC2)ncc1-c1ccc(C2(C(=O)Nc3ccc(F)cc3)COC2)cc1	IC50 [10]: 0.08 nM
3 nM	11 mL/min/kg	123 µM (≈ 58.4 µg/mL)	12 mL/min/kg	124 µM (≈ 58.8 µg/mL)	CC(C)(O)c1cc(C(F)(F)F)ncc1-c1ccc(C2(C(=O)Nc3ccc(F)cc3)COC2)cc1	IC50 [13]: 12000 nM; Ki [12]: 0.11 nM; IC50 (Cytochrome P450 2C9): 8640 nM; bioavailability [14]: 50%; Activity [15]: Dde; IC50 [16]: 8300 nM; T1/2 [17]: 2.55 h; half-life [18]: 43 h; half-life [19]: 7.4 h; bioavailability [20]: 16%; IC50 [10]: 0.29 nM; Activity [21]: Dde; K [22]: 4.54 10^-3/min; bioavailability [23]: 62%; IC50 [24]: 40000 nM; bioavailability [25]: 27%
	< 6 mL/min/kg	17 µM (≈ 8.17 µg/mL)	< 12 mL/min/kg	16 µM (≈ 7.69 µg/mL)	O=C(Nc1ccc(F)cc1)C1(c2ccc(-c3cnc(C(F)(F)F)cc3CO)cc2)CC(F)(F)C1	IC50 (Cytochrome P450 2C9): 805 nM
